Data on five compounds can be found in patent US20040116420A1 (priority 2001, published 2004).

Data set [1] concerns VZV. In words: Antiviral activity 2, plaque formation in HEL cells. It is filed as cell-based. The settings on record: Human alphaherpesvirus 3, 72 h, 3 days. On the procedure:
(§1) An Assay Method for Antiviral Activity 2
(§2) The HEL cells were sowed on a 48-well plate and then cultured overnight. The culture supernatant was removed, and 100 μl of 2% FBS-DMEM containing 40 Plaque-forming units of HSV-1, HSV-2, VZV, or CMV was added. A viral solution Was removed 1 hour later, and 500 μl of 2% FBS-DMEM containing 0.5% methylcellulose comprising 50, 25, 12.5, 6.3, 3.2, or 1.6 μM of the test compound was added. In this case, a substance to which 2% FBS-DMEM containing 0.5% methylcellulose not comprising any test compound had been added was designated as a control. In the case of HSV-1, HSV-2, or VZV, incubation was carried out in the presence of 5% CO2 at 37° C. for 3 days. In the case of CMV, incubation was carried out under the same conditions for 14 days. After they were immobilized on formalin and stained with bromophenol blue, the amount of plaque formed was counted, and the ratio of plaque formation of the drug-containing reaction system relative to the control was determined. The concentration of the drug with which the ratio of plaque formation reaches 50% was calculated and determined to be IC50. Concerning HSV-1, an aciclovir-resistant thymidine kinase variant and a DNA polymerase variant were examined in addition to a general aciclovir-sensitive strain.

Data set [2] relates to HCMV. Described as above. The settings on record: Human betaherpesvirus 5, 336 h, 14 days. It is filed as cell-based, CMV. The method, then:
as §1, §2

For data set [3], the system named is HSV-1. In words: Antiviral activity, HSV-1 in Vero cells, plaque method. It is filed as cell-based. The settings on record: Human alphaherpesvirus 1, 20 hours, 90% inhibition of plaque formation. The gist of the method:
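HSV-1 (50,000 pfu in 2% FBS-DMEM) was added to Vero cells and removed, then the compound was applied in 2% FBS-DMEM for 20 h at 37° C, 5% CO2. After a freeze-thaw, virus yield in the medium was titred by plaque assay. EC90 is the concentration giving 90% plaque reduction versus the compound-free control.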

In data set [4] the test system is HSV2. In words: Antiviral activity 2, plaque formation in HEL cells. It is filed as cell-based, HSV-2. The settings on record: Human alphaherpesvirus 2, 72 h, 3 days. On the procedure: as §1, §2
Data set [5] relates to Vero cells. Kind of data set: Cytotoxicity, Vero cells, Alamar Blue. It counts as cell-based. The settings on record: 25 μM, 20 hours. In outline: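 Overnight-seeded Vero cells were exposed to 25 μM compound in 2% FBS-DMEM for 20 h at 37 °C, 5% CO2. Alamar Blue was then added for about 6 h. The absorbance ratio relative to compound-free control gave the living-cell ratio.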
Background: Resazurin is reduced to fluorescent resorufin, in cell work by metabolically active cells.

The target of data set [6] is T1, HSV-1 protease (Human herpesvirus 1, UniProt P10210).
T1 construct: 6xHis (N); made in house; host or cells: baculovirus expression system
T1 sequence (P10210 1-247): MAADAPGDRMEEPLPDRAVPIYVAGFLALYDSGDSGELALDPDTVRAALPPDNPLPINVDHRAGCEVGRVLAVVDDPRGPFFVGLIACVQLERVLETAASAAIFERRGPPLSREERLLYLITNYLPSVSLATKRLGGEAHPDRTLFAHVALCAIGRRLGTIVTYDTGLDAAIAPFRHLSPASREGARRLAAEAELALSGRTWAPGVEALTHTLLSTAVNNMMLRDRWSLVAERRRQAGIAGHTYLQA
In words: Enzymatic assay for HSV-1 protease (assembly) inhibitor, fluorescence polarization. It is filed as biochemical. The settings on record: read-out: HSV-1 Enzyme inhibition IC50. In outline: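 His6-tagged HSV-1 UL26 protease, baculovirus-expressed, preincubated 30 min at RT with compound in 1 M citrate/phosphate buffer pH 7.4 with 20% glycerol and 2 mM TCEP. A biotin-HTYLQA*SERFRIK-DTAF substrate was then cleaved for 60 min at RT, stopped with avidin, and read by fluorescence polarization versus no-inhibitor control.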
In general terms: Polarisation of emitted light reports the rotation of a fluorescent probe.

Data set [7] can be described thus: Human plasma stability. It counts as in vitro ADME. The method, then:
An Assay Method for Human Plasma Stability Human plasma was thawed, 200 μl each thereof was placed in each cell of a 96-well plate immediately thereafter, and 4 μl of solution of each test compound in 1 mM DMF was added thereto. A microplate reader for fluorescence absorption was used to assay changes in fluorescence, and half life was determined based on the changes.

For data set [8], the system named is HSV1 Thimidine kinase variant. In words: Antiviral activity 2, plaque formation in HEL cells. It counts as cell-based, HSV-1. The settings on record: Human alphaherpesvirus 1, HEL, 72 h, read-out: Antiviral activity: IC50, HSV1 Thimidine kinase variant. The method, then:
as §1, §2

The test system of data set [9] is HSV1 Sensitive strain. Described as above. It counts as cell-based, HSV-1. The settings on record: Human alphaherpesvirus 1, 72 h, 3 days. On the procedure:
as §1, §2

The test system of data set [10] is HSV1 DNA polymerase variant. The data set is described as above. It is filed as cell-based, HSV-1. The settings on record: Human alphaherpesvirus 1, HEL, 72 h, read-out: Antiviral activity: IC50, HSV1 DNA polymerase variant. On the procedure: as §1, §2

What is called IC50 is the concentration needed to halve the response being measured. What is called EC90 is the concentration needed for an effect of 90%. In general, half-life refers to how long it takes for the measured level to halve. Regarding `Cc1c(NC(=O)OC(C)(C)C)ccc2nc(N[C@@H](Cc3ccccc3)C(=O)N(C)CCc3ccccn3)oc(=O)c12` [Compound No.21, (5-Methyl-2-{1-[methyl-1S-(2-pyridin-2-yl-ethyl)-carbamoyl]-2-phenyl-ethylamino}-4-oxo-4H-benzo[d][1,3]oxazin-6-yl)-carbamic Acid Tert-Butyl Ester], the concentration for half-maximal inhibition (IC50) was 6.4 µM in [1]; above 5 µM in data set [2]; 10.7 µM in data set [4]; 1.5 µM in data set [6]; 16.1 µM in data set [8]; 6.1 µM in [9]. For the same compound, in [10], the IC50 worked out at 6.9 µM. Moreover, the EC90 in data set [3] came out at 5.9 µM. In addition, the “Cell viability (% of control)” value in data set [5] came out at 53.2%. In addition, the half-life at 19.6 μM in data set [7] was found to be 1.78 h.

With `Cc1c(NC(=O)OC(C)(C)C)ccc2nc(N(C)[C@@H](Cc3ccccc3)C(=O)NCc3ccccn3)oc(=O)c12` [Compound No.22, [5-Methyl-2-(methyl-{2-phenyl-1S-[(pyridin-2-ylmethyl)-carbamoyl]-ethyl}-amino)-4-oxo-4H-benzo[d][1,3]oxazin-6-yl]-carbamic Acid Tert-Butyl Ester], the IC50 in data set [1] was above 25 µM; in data set [2], above 25 µM; in [4], 16.6 µM; in data set [6], 1.8 µM; in [8], 16.3 µM; in data set [9], 9.5 µM. In addition, in data set [10], the IC50 was 14.3 µM. Moreover, in [3], the EC90 was found to be 9 µM. In addition, in data set [5], the “Cell viability (% of control)” value is 66.5%. In data set [7], this compound showed a half-life at 19.6 μM of 3.02 h.

Turning to `Cc1c(NC(=O)OC(C)(C)C)ccc2nc(NC(C)(C)C(=O)N(C)Cc3ccccn3)oc(=O)c12` [Compound No.59, {5-Methyl-2-[1-methyl-1-(methyl-pyridin-2-ylmethyl-carbamoyl)-ethylamino]-4-oxo-4H-benzo[d][1,3]oxazin-6-yl}-carbamic acid tert-butyl ester], the EC90 in data set [3] was 10.1 µM. Further, in data set [5], the “Cell viability (% of control)” value was 106.0%. For the same compound, in data set [6], the IC50 is 1.1 µM. The compound further yielded a half-life at 19.6 μM in data set [7] of 5.13 h.

In the case of `Cc1c(NC(=O)OC(C)(C)C)ccc2nc(N[C@@H](C)C(=O)N(C)CCc3cccnc3)oc(=O)c12` [Compound No.65, (5-Methyl-2-{1S-[methyl-(2-pyridin-3-yl-ethyl)-carbamoyl]-ethylamino}-4-oxo-4H-benzo[d][1,3]oxazin-6-yl)-carbamic acid tert-butyl ester], the 90% effect level in data set [3] (EC90) was put at 7.6 µM. Further, the “Cell viability (% of control)” value in data set [5] is listed as 104.0%. In data set [6], the IC50 was found to be 0.2 µM. The compound further registered a half-life at 19.6 μM in data set [7] of 3.02 h.

Consider `Cc1c(NC(=O)OC(C)(C)C)ccc2nc(NC3(C(=O)N(C)CCc4ccncc4)CCCCC3)oc(=O)c12` [Compound No.129, (5-Methyl-2-{1-[methyl-(2-pyridin-4-yl-ethyl)-carbamoyl]-cyclohexylamino}-4-oxo-4H-benzo[d][1,3]oxazin-6-yl)-carbamic acid tert-butyl ester], for which the IC50 in data set [1] was above 5 µM; in data set [2], above 5 µM; in [4], 10.3 µM; in [6] it was 1.1 µM; in [8], 17.7 µM; in [9] it was 5.8 µM. Besides, the IC50 in [10] was 8.7 µM. The compound further showed a 90% effect concentration (EC90) in data set [3] of 5.8 µM. This compound displayed a half-life at 19.6 μM in [7] above 15 h.
